These results are taken from EP0293880B1, “Antihyperlipidemic and antiatherosclerotic urea compounds” (priority 1987, dated 1988).

The target in test [1] is acyl-CoA:cholesterol acyl-transferase (ACAT). The test can be described thus: In vitro ACAT inhibition test (radio-labeled cholesterol oleate formed from radio-labeled oleic acid in rabbit intestinal microsomes). The format is biochemical. As to conditions: tissue preparation containing rabbit intestinal microsomes; concentration required to inhibit 50% expression of the enzyme; read-out: IC₅₀. The method, then:
The ability of representative compounds of the present invention to inhibit ACAT was measured using an in vitro test more fully described in Field, F. J. and Salone, R. G., Biochemica et Biophysica 712: 557-570 (1982). The test assesses the ability of a test compound to inhibit the acylation of cholesterol by oleic acid by measuring the amount of radio-labeled cholesterol oleate formed from radio-labeled oleic acid in a tissue preparation containing rabbit intestinal microsomes. The data appear in Table 1 where they are expressed as IC₅₀ values; i.e. the concentration of test compound required to inhibit 50% expression of the enzyme.

A short description of test [2]: In vivo screen PCC (cholesterol-fed rats, total blood cholesterol). Also noted: species or system male Sprague-Dawley rats. As to conditions: after one week; for % Change: change of total blood cholesterol versus control, 0.05% of the test drug in the diet; for Total Blood Cholesterol: rats on chow diet with 5.5% peanut oil, 1.5% cholesterol, 0.3%-0.5% cholic acid, 0.05% of the test drug admixed into the diet. The source says:
In one in vivo screen, designated PCC, male Sprague-Dawley rats (approximately 200 g body weight) are randomly divided into groups and provided ad libidum a regular chow diet (Purina No. 5002, Ralston Purina Co., 711 West Fuesser Road, Mascoutah, Illinois, 62224, USA), supplemented with 5.5% peanut oil, 1.5% cholesterol, and 0.3%-0.5% cholic acid, together with 0.05% of the test drug which is admixed into the diet. After one week the animals are etherized and a blood sample is taken from the heart and mixed with 0.14% ethylenediamine tetraacetic acid (EDTA) to measure the total cholesterol.

In the case of `Cc1cccc(C)c1NC(=O)NC1(c2ccccc2)CCCC1` [Example 1, N-(2,6-dimethylphenyl)-N'-(1-phenylcyclopentyl)urea], the IC50 in test [1] was found to be 80 nM.

Turning to `CCc1cccc(CC)c1NC(=O)NC1(c2ccccc2)CCC1` [Example 2, N-(2,6-diethylphenyl)-N'-(1-phenylcyclobutyl)urea], the IC50 in test [1] was 230 nM.

Consider `CCc1cccc(CC)c1NC(=O)NC1(c2ccccc2)CCCC1` [Example 3, N-(2,6-diethylphenyl)-N'-(1-phenylcyclopentyl)urea], for which the IC50 in test [1] was found to be 120 nM.

For `CCc1cccc(CC)c1NC(=O)NCC1(c2ccccc2)CC1` [Example 4, N-(2,6-diethylphenyl)-N'-[(1-phenylcyclopropyl)methyl]urea], the IC50 in test [1] amounted to 88 nM.

For `COc1cc(OC)c(NC(=O)NC2(c3ccccc3)CCCC2)c(OC)c1` [Example 5, N-(1-phenylcyclopentyl)-N'-(2,4,6-trimethoxyphenyl)urea], the IC50 in test [1] was determined as 700 nM.

In the case of `Cc1cccc(C)c1NC(=O)NC1(c2cccs2)CCCCC1` [Example 6, N-(2,6-dimethylphenyl)-N'-[1-(2-thienyl)cyclohexyl]urea], in test [1], the IC50 stood at 130 nM.

Regarding `CCc1cccc(CC)c1NC(=O)NC1(c2cccs2)CCCCC1` [Example 7, N-(2,6-diethylphenyl)-N'-[1-(2-thienyl)cyclohexyl]urea], the IC50 in test [1] came to 48 nM.

As to `CC(C)c1cccc(C(C)C)c1NC(=O)NC1(c2cccs2)CCCCC1` [Example 8, N-[2,6-bis(1-methylethyl)]-N'-[1-(2-thienyl)cyclohexyl]urea], in test [2], the “% Change” value is -69% and the “Total Blood Cholesterol” value was 60 (Control = 181) mg/dl. In addition, the IC50 in test [1] was determined as 43 nM.

Consider `CCc1cccc(CC)c1NC(=O)NCC1(c2ccccc2)CCCCC1` [Example 9, N-(2,6-diethylphenyl)-N'-[(1-phenylcyclohexyl)methyl]urea], for which the IC50 in test [1] turned out to be 51 nM.

Consider `Cc1cccc(C)c1NC(=O)NCC1(c2ccccc2)CCCC1` [Example 10, N-(2,6-dimethylphenyl)-N'-[(1-phenylcyclopentyl)methyl]urea], for which, in test [1], the IC50 is 154 nM.

As for `Cc1cccc(C)c1NC(=O)NCC1(c2ccccc2)CCCCC1` [Example 11, N-(2,6-dimethylphenyl)-N'-[(1-phenylcyclohexyl)methyl]urea], the IC50 in test [1] was determined as 81 nM.

As to `CCc1cccc(CC)c1NC(=O)NCC1(c2ccccc2)CCCC1` [Example 12, N-(2,6-diethylphenyl)-N'-[(1-phenylcyclopentyl)methyl]urea], the IC50 in test [1] was 15 nM.

As for `CC(C)c1cccc(C(C)C)c1NC(=O)NCC1(c2ccccc2)CCCC1` [Example 13, N-[2,6-bis(1-methylethyl)phenyl]-N'-[(1-phenylcyclopentyl)methyl]urea], in test [2], the “% Change” value is -73% and the “Total Blood Cholesterol” value was 61 (Control = 224) mg/dl. Also, the IC50 in test [1] came out at 17 nM.

On to `CC(C)c1cccc(C(C)C)c1NC(=O)NCC1(c2ccccc2)CCCCC1` [Example 14], for which the IC50 in test [1] turned out to be 21 nM.

On to `Cc1cccc(C(C)C)c1NC(=O)NC1(c2cccs2)CCCCC1` [Example 15, N-[2-methyl-6-(1-methylethyl)-phenyl]-N'-[1-(2-thienyl)cyclohexyl]urea], for which the IC50 in test [1] is 230 nM.

Regarding `Cc1cccc(C(C)(C)C)c1NC(=O)NC1(c2cccs2)CCCCC1` [Example 16, N-[2-(1,1-dimethylethyl)-6-methyl-phenyl]-N'-[1-(2-thienyl)cyclohexyl]urea], the IC50 in test [1] was 256 nM.

For `Cc1cccc(C(C)C)c1NC(=O)NCC1(c2ccccc2)CCCCC1` [Example 17, N-[2-methyl-6-(1-methylethyl)-phenyl]-N'-[(1-phenylcyclohexyl)methyl]urea], in test [1], the IC50 stood at 58 nM.

Take `Cc1cccc(C(C)(C)C)c1NC(=O)NCC1(c2ccccc2)CCCCC1` [Example 18, N-[2-(1,1-dimethylethyl)-6-methylphenyl]-N'-[(1-phenylcyclohexyl)methyl]-urea]: in test [1], the IC50 was 54 nM.

Consider `CCc1cccc(C(C)C)c1NC(=O)NCC1(c2ccccc2)CCCCC1` [Example 19, N-[2-ethyl-6-(1-methylethyl)-phenyl]-N'-[(1-phenylcyclohexyl)methyl]urea], for which the IC50 in test [1] was 20 nM.

On to `Cc1cccc(C(C)C)c1NC(=O)NCC1(c2ccccc2)CCCC1` [Example 20, N-[2-methyl-6-(1-methylethyl)-phenyl]-N'-[(1-phenylcyclopentyl)methyl]urea], for which the IC50 in test [1] was found to be 16 nM.

With `Cc1cccc(C(C)(C)C)c1NC(=O)NCC1(c2ccccc2)CCCC1` [Example 21, N-[2-(1,1-dimethylethyl)-6-methylphenyl]-N'-[(1-phenylcyclopentyl)methyl]-urea], in test [1], the IC50 was 18 nM.

Turning to `CCc1cccc(C(C)C)c1NC(=O)NCC1(c2ccccc2)CCCC1` [Example 22, N-[2-ethyl-6-(1-methylethyl)-phenyl]-N'-[(1-phenylcyclopentyl)methyl]urea], the IC50 in test [1] is 25 nM.

As for `O=C(Nc1ccc(F)cc1F)NC1(c2cccs2)CCCCC1` [Example 23, N-(2,4-difluorophenyl)-N'-[1-(2-thienyl)cyclohexyl]urea], in test [1], the IC50 was 370 nM.

Take `O=C(NCC1(c2ccccc2)CCCC1)Nc1ccc(F)cc1F` [Example 24, N-(2,4-difluorophenyl)-N'-[(1-phenylcyclopentyl)methyl]urea]: the IC50 in test [1] was 1280 nM.

Consider `O=C(NCC1(c2ccccc2)CCCCC1)Nc1ccc(F)cc1F` [Example 25, N-(2,4-difluorophenyl)-N'-[(1-phenylcyclohexyl)methyl]urea], for which, in test [1], the IC50 is 790 nM.

For `O=C(NCC1(c2ccccc2)CCCCC1)Nc1c(Br)cc(F)cc1Br` [Example 26, N-(2,6-dibromo-4-fluorophenyl)-N'-[(1-phenyl-cyclohexyl)methyl]urea], the IC50 in test [1] was determined as 39 nM.
